Assay results published in article PMC11521309, “A novel 4-aminoquinoline chemotype with multistage antimalarial activity and lack of cross-resistance with PfCRT and PfMDR1 mutants” (PLOS Pathogens, 2024).

What was measured:
[1] = tested on: P. falciparum 3D7 ABS parasites; assay: ABS parasite survival assay, 72 h, flow cytometry; format: cell-based; conditions: Plasmodium falciparum, 3D7, ABS parasites, N = 3; read-out: IC50 3D7
Protocol: (§1) P. falciparum ABS parasites were cultured at 3% hematocrit in human O^+ RBCs in RPMI-1640 media supplemented with 25 mM HEPES, 50 mg/L hypoxanthine, 2 mM L-glutamine, 0.21% sodium bicarbonate, 0.5% (w/v) AlbuMAXII (Invitrogen) and 10 μg/mL gentamycin. Culture flasks were kept in modular incubator chambers (Billups-Rothenberg) in a 5% O2, 5% CO2, and 90% N2 atmosphere at 37°C. Synchronized ring-stage parasites were obtained by two consecutive rounds of treatment with 5% D-sorbitol in 48-hour intervals. […] This was done by exposing cultures at 1% hematocrit and 0.3% parasitemia in 96-well plates in the presence of drugs in a two-fold 10 or 12-point serial dilution in duplicate along with drug-free controls. After a 72-hour incubation, parasite survival was assessed by flow cytometry on an iQue flow cytometer (Sartorius) using SYBR Green and MitoTracker Deep Red FM (Life Technologies) as nuclear stain and vital dye, respectively. Parasite survival was determined as a percentage relative to drug-free control. IC50 values were interpolated from log concentration versus response curves in Prism 9 (GraphPad Prism Software Inc.).

[2] = tested on: P. falciparum Dd2 ABS parasites; assay: ABS parasite survival assay, 72 h, flow cytometry; format: cell-based; conditions: Plasmodium falciparum, DD2, ABS parasites, N = 3; read-out: IC50 Dd2
Protocol: as §1

[3] = MTT cytotoxicity assay, 72 h; format: cell-based, monkey; conditions: monkey, COS-7 cells; MTT, 72 h, N = 3
Protocol: (§2) Human hepatoma (HepG2) and fibroblast-like monkey kidney cells (COS-7) were cultured in Dulbecco’s Modified Eagle Medium supplemented with 10% heat-inactivated fetal bovine serum and gentamycin (40 mg/L) at 37°C in a 5% CO2 atmosphere. Cytotoxicity of test compounds was measured by metabolic reduction of mitochondrial enzymes using the MTT assay (3-[4,5-dimethyl-thiazol-2-yl]-2,5-diphenyltetrazolium chloride). Cells were seeded at 10^5 cells/well in 96-well plates and incubated for 72 hours in the presence of a 2-fold 12-point serial dilution of drugs along with drug-free controls. After adding 15 μL of MTT (5 mg/mL) to the wells, plates were centrifuged at 317g for 5 minutes and the pellet was resuspended in isopropanol. Absorbance was measured at 570 nm (CLARIOStar, Labtech BMG). Cell viability was determined by formazan production, and was expressed as a percentage of untreated control wells.

[4] = tested on: COS-7 cells; assay: MTT cytotoxicity assay, 72 h; format: cell-based, monkey
Protocol: as §2

[5] = MTT cytotoxicity assay, 72 h; format: cell-based, Human; conditions: human, HepG2 cells; MTT, 72 h, N = 3
Protocol: as §2

[6] = tested on: HepG2 cells; assay: MTT cytotoxicity assay, 72 h; format: cell-based, Human
Protocol: as §2

[7] = tested on: P. berghei PbGFP-Luccon liver stage; assay: In vitro inhibition of liver stage infection of Huh-7 cells, bioluminescence; format: cell-based, Plasmodium berghei; conditions: DMSO = 100
Protocol: (§3) In vitro inhibition of Plasmodium liver stage infection was assessed using bioluminescence data from Huh-7 cells infected with a firefly-luciferase-expressing P. berghei line, PbGFP-Luccon, in the presence of various compound concentrations. […] One day before drug treatment and infection, 10^4 Huh-7 cells/well were seeded in 96-well plates. The medium was then replaced by an infection medium (culture medium supplemented with 50 μg/mL gentamycin and 0.8 μg/mL amphotericin B) containing desired concentrations of test compounds. Fresh sporozoites recovered from salivary glands of infected female Anopheles stephensi mosquitoes were added to seeded Huh-7 cells at a 1:1 proportion, followed by centrifugation at 1700g for 5 minutes and incubation for 46 hours at 37°C under 5% CO2. Compound toxicity against Huh-7 cells was assessed by measuring […] using the Alamar Blue assay (Invitrogen). IC50 values were calculated using nonlinear regression analysis (GraphPad Prism version 9).

[8] = tested on: Huh-7 cells; assay: Host cell confluency, Alamar Blue; format: cell-based, human; conditions: DMSO = 100
Protocol: as §3

[9] = tested on: P. falciparum NF54-Pfs16-GFP-Luc stage IV-V gametocytes; assay: Mature gametocyte (stages IV-V) viability, luciferase, 48 h; format: cell-based, Plasmodium falciparum; conditions: 5 μM
Protocol: P. falciparum NF54-Pfs16-GFP-Luc (MRA-1217), a highly gametocyte-producing strain, was cultured following standard procedures. NF54-Luc ABS parasites were sorbitol-synchronized as previously described and cultured to reach 8–10% parasitemia as mature trophozoites prior to starting gametogenesis induction via nutrient deficit stress. Briefly, stress was induced by replacing only 40% of the culture medium and returning cultures to a 37°C incubation. Cultures were treated with 50 mM N-acetylglucosamine for 10 days to remove ABS parasites. Mature gametocytes (stages IV-V) were isolated using magnetic columns and incubated at 2% gametocytemia and 1.5% hematocrit in 96-well plates containing the test compounds for 48 hours at 37°C, following standard P. falciparum culturing conditions. Methylene blue was used as a gametocytocidal control alongside drug-free wells. Luciferase activity was assessed by adding 40 μL of luciferin substrate (Promega) to 40 μL of parasite lysates and detecting bioluminescence at an integration constant of 10s with the BioTek Cytation 5 Cell Imaging Multimode Reader.

SMILES	IC50 [1] [nM]	IC50 [2] [nM]	CC50 at 72 h [3] [µM]	SI (CC50 COS-7 / IC50 3D7) [4]	CC50 at 72 h [5] [µM]	SI (CC50 HepG2 / IC50 3D7) [6]	Infection, Mean ([7]; 1 uM)	Infection, Mean ([7]; 10 uM)	Confluency, Mean ([8]; 1 uM)	Confluency, Mean ([8]; 10 uM)	% Inhibition of viability, mature gametocytes ([9]; mean, N = 3) [%]	% Inhibition of viability, mature gametocytes ([9]; mean, N = 3, listed as MB) [%]	% Inhibition of viability, mature gametocytes ([9]; single replicates) [%]
COc1ccc2c(Nc3ccccc3)ccnc2c1 [LDT-622]	200 ± 20	400 ± 60	3.8 ± 0.7	17.5	3 ± 0.9	13.7	–	–	–	–	–	–	–
COc1cc(Nc2ccnc3cc(Br)ccc23)cc(OC)c1OC [LDT-624]	1600 ± 700	1000 ± 200	41.3 ± 17.2	26.1	32.5 ± 7.5	20.6	–	–	–	–	–	–	–
COc1ccc(Nc2ccnc3ccc(F)cc23)cc1OC [LDT-625]	3200 ± 800	2900 ± 500	20.4 ± 1.3	6.2	33.3 ± 3.8	10.3	–	–	–	–	–	–	–
COc1ccc(Nc2ccnc3c(F)cc(F)cc23)cc1OC [LDT-626]	5500 ± 500	3200 ± 400	50.9 ± 22.2	9.3	53.8 ± 10.8	9.8	–	–	–	–	–	–	–
COc1ccc(Nc2ccnc3ccccc23)cc1 [LDT-627]	2500 ± 800	2000 ± 200	54.5 ± 16.7	22.1	12.7 ± 6.4	5.2	–	–	–	–	–	–	–
COc1cc(NC(C)CCCN)c2ncccc2c1 (stereo not shown) [Primaquine]	–	–	–	–	–	–	136.53	51.51	110.92	113.36	–	–	–
CN(C)c1ccc2nc3ccc(=[N+](C)C)cc-3sc2c1 [methylene blue]	–	–	–	–	–	–	–	–	–	–	100	100.00	100.00
